This note sets out measurements from patent publication US20110301217A1, “Selective Glycosidase Inhibitors and Uses Thereof” (priority 2008, published 2011).

SMILES strings stand for the structures.

For the assay, the target named is T1, O-GlcNAcase (Homo sapiens, UniProt O60502).
T1 sequence (O60502 1-916): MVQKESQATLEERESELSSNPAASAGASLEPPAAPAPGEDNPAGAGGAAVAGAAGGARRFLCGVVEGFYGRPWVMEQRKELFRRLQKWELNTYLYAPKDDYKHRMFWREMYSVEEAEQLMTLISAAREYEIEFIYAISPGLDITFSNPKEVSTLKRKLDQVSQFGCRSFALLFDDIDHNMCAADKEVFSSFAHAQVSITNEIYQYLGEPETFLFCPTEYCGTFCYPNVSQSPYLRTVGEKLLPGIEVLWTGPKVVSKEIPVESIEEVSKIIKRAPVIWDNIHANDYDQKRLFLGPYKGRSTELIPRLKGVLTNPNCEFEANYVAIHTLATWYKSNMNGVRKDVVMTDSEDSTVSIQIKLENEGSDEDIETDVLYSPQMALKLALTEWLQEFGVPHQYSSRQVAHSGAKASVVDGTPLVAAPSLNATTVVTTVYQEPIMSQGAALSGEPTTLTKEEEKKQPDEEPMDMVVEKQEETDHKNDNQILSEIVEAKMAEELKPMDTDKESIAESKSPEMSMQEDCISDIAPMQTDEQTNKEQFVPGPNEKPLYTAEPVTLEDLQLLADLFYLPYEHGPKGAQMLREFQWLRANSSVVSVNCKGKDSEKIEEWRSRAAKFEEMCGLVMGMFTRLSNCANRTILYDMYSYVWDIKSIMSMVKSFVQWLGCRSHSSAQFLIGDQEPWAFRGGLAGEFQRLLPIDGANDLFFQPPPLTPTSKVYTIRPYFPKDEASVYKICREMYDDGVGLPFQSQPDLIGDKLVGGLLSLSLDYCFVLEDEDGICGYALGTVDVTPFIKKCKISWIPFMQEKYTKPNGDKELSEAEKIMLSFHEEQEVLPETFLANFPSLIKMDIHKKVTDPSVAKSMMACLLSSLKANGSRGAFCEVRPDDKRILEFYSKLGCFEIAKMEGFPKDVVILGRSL
In words: Assay for determination of KI values for inhibition of O-GlcNAcase activity (pNP-GlcNAc substrate). It is filed as biochemical. To be noted: PBS pH 7.4, 0.5 mM pNP-GlcNAc, 37° C., Dixon plots. The procedure:
Assay for Determination of KI Values for Inhibition of O-GlcNAcase Activity
Experimental procedure for kinetic analyses: Enzymatic reactions are carried out in PBS buffer (pH 7.4) using pNP-GlcNAc as a substrate (0.5 mM) and monitored continuously at 37° C. at 400 nm using a Cary 3E UV-VIS spectrophotometer equipped with a Peltier temperature controller. Reactions are pre-heated in a 500 μL quartz cuvette for approximately 5 minutes followed by addition of 10 μL enzyme via syringe (final enzyme concentration 0.002 mg/mL). Reaction velocities are determined by linear regression of the linear region of the reaction progress curve between the first and third minutes. An inhibitor concentration range of 1/5 to 5 times KI is used in each case.
All KI values are determined using linear regression of Dixon plots.

Broadly, the Ki is a measure of affinity in units of concentration, obtained from inhibition or displacement. Read a low Ki as a stronger hold on the target. In turn, `CC(=O)NC[C@H]1N[C@H](CO)[C@@H](O)[C@@H]1O` [Compound 2, N-(((2R,3R,4R,5R)-3,4-dihydroxy-5-(hydroxymethyl)pyrrolidin-2-yl)methyl)acetamide] had an inhibition constant (Ki) of 0.85 µM.
